The compounds below were run against T1, AR-Receptor (Homo sapiens, UniProt P10275) (assay: Functional Assay AR-Receptor (MDA-MB-453 cells, luciferase)). Details: antagonist effect in the presence of DHT 1 nM, 24 h, luciferase luminescence, read-out: AR antag KB.
T1 sequence (P10275 1-920 Q868H): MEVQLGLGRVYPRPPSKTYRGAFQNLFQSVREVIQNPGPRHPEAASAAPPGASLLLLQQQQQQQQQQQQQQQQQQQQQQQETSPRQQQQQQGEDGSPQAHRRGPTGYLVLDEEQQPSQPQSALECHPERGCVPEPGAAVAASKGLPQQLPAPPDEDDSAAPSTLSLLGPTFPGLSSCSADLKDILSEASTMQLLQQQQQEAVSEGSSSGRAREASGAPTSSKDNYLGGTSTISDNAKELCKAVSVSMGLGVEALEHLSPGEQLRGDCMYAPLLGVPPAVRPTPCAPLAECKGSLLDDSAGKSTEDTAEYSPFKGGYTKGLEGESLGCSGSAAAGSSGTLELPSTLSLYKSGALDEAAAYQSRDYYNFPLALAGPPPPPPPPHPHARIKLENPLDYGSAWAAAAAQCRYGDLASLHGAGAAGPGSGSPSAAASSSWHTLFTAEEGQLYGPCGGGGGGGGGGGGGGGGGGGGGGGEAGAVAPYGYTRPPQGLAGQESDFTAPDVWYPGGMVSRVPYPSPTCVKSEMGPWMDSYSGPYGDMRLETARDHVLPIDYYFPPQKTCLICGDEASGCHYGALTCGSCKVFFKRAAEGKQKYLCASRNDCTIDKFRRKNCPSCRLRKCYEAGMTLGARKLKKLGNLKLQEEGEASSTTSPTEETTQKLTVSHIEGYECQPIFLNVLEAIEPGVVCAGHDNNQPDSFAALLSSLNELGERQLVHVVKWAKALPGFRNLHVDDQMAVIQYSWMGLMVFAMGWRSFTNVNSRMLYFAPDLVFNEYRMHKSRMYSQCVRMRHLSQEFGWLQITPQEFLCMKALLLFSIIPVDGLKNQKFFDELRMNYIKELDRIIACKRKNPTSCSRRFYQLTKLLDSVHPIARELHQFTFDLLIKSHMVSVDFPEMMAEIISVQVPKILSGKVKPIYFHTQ
Assay type: cell-based
Outline: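 MDA-MB-453 cells, 8000/well, were switched to medium with 0.1% FBS and exposed to compounds for 24 h at 37 °C. Antagonist mode used 1 nM DHT. After lysis and a freeze-thaw cycle, luciferase luminescence was read.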

Row | SMILES | Kb [nM]
1 | CC(=O)C1=C(C)NC(C)=C(C(=O)OCC2CC2)C1c1csc2ncccc12 (centres unmarked) [Example C24, Cyclopropylmethyl 5-acetyl-2,6-dimethyl-4-(thieno[2,3-b]pyridin-3-yl)-1,4-dihydropyridine-3-carboxylate] | ≥ 1000
2 | CC(=O)C1=C(C)NC(C)=C(C(=O)OCc2cccc(-c3cccnc3)c2)C1c1csc2ncccc12 (centres unmarked) [Example L4, 3-(pyridin-3-yl)benzyl 5-acetyl-2,6-dimethyl-4-(thieno[2,3-b]pyridin-3-yl)-1,4-dihydropyridine-3-carboxylate] | 100 to 1000
3 | CC(=O)C1=C(C)NC(C)=C(C(=O)OCc2ccccc2Br)C1c1csc2ncccc12 (centres unmarked) [Example C67, 2-bromobenzyl 5-acetyl-2,6-dimethyl-4-(thieno[2,3-b]pyridin-3-yl)-1,4-dihydropyridine-3-carboxylate] | < 100
4 | CC(=O)C1=C(C)NC(C)=C(C(=O)OCc2ccc(-c3ccncc3)cc2)C1c1csc2ncccc12 (centres unmarked) [Example L1, 4-(pyridin-4-yl)benzyl 5-acetyl-2,6-dimethyl-4-(thieno[2,3-b]pyridin-3-yl)-1,4 dihydropyridine-3-carboxylate] | 100 to 1000
5 | CC(=O)C1=C(C)NC(C)=C(C(=O)OCc2cccnc2)C1c1csc2ccccc12 (centres unmarked) [Example C48, Pyridin-3-ylmethyl 5-acetyl-4-(benzo[b]thiophen-3-yl)-2,6-dimethyl-1,4-dihydropyridine-3-carboxylate] | 100 to 1000
6 | CC(=O)C1=C(C)NC(C)=C(C(=O)OCc2ccccc2)C1c1csc2ccccc12 (centres unmarked) [Example B6, Benzyl 5-acetyl-4-(benzo[b]thiophen-3-yl)-2,6-dimethyl-1,4-dihydro-pyridine-3-carboxylate] | 100 to 1000
7 | CC1=C(C(=O)OC2CC2)C(c2csc3c(C#N)cccc23)C(C(=O)OCC2CC2)=C(N)N1 (centres unmarked) [Example D37, 5-Cyclopropyl 3-(cyclopropylmethyl) 2-amino-4-(7-cyanobenzo[b]thiophen-3-yl)-6-methyl-1,4-dihydropyridine-3,5-dicarboxylate] | 100 to 1000
8 | C#CCOC(=O)C1=C(C)NC(N)=C(C(=O)OCC2CC2)C1c1csc2c(C#N)cccc12 (centres unmarked) [Example D47, 3-(Cyclopropylmethyl) 5-(prop-2-yn-1-yl) 2-amino-4-(7-cyanobenzo[b]thiophen-3-yl)-6-methyl-1,4-dihydropyridine-3,5-dicarboxylate] | ≥ 1000
9 | COC(=O)C1=C(CO)NC(C2CC2)=C(C(=O)OC)C1c1csc2c(C#N)cccc12 (centres unmarked) [Example C118, Dimethyl 4-(7-cyanobenzo[b]thiophen-3-yl)-2-cyclopropyl-6-(hydroxymethyl)-1,4-dihydropyridine-3,5-dicarboxylate] | 100 to 1000
10 | COC(=O)C1=C(C2CC2)NC(C)=C(C(C)=O)C1c1csc2c(Br)cccc12 (centres unmarked) [Example J26, Methyl 5-acetyl-4-(7-bromobenzo[b]thiophen-3-yl)-2-cyclopropyl-6-methyl-1,4-dihydropyridine-3-carboxylate] | 100 to 1000
11 | COC(=O)C1=C(C)NC(N)=C(C(=O)OC2CCCC2)C1c1csc2c(C#N)cccc12 (centres unmarked) [Example D27, 3-Cyclopentyl 5-methyl 2-amino-4-(7-cyanobenzo[b]thiophen-3-yl)-6-methyl-1,4-dihydropyridine-3,5-dicarboxylate] | 100 to 1000

Source: patent US11453660B2, “Androgen receptor and glucocorticoid receptor modulators” (ONCOSTELLAE, S.L., priority 2017, dated 2022)
